Consider one molecule from ChEMBL document CHEMBL5038667, “Discovery of an Amino Acid-Modified Near-Infrared Aza-BODIPY Photosensitizer as an Immune Initiator for Potent Photodynamic Therapy in Melanoma” (J Med Chem, 2022).

Data set [1] can be described thus: Drug elimination in C57BL/6 mouse harboring B16-F10 cells at 2 mg/kg, iv measured after 48 hrs by fluorescence imaging assay. The format is ADME, organism-based. The following applies: in vivo.
For data set [2], the system named is B16-F10. The data set can be described thus: Induction of apoptosis in mouse B16-F10 cells assessed as late apoptotic cells at 50 nM incubated for 16 hrs followed by irradiated with 54 J/cm^2 light dose by Annexin V-FITC/PI based flow cytometric analysis (reference value: 2.32 %). The class given is functional. In general terms: A flow cytometer gives signals particle by particle.

Data set [3] has as its system B16-F10. Put plainly: Dark toxicity against mouse B16-F10 cells assessed as reduction in cell viability incubated for 16 hrs by CCK-8 assay. The class given is cell-based. As to conditions: B16-F10, 16 h. In general terms: Formazan colour is commonly taken as a measure of viable cells.
Data set [4] has as its system B16-F10. The data set can be described thus: Induction of apoptosis in mouse B16-F10 cells assessed as necrotic cells at 50 nM incubated for 16 hrs followed by irradiated with 54 J/cm^2 light dose by Annexin V-FITC/PI based flow cytometric analysis (reference value: 3.75 %). The class given is functional.
Data set [5] is described as follows: Phototoxicity against human A-375 cells assessed as reduction in cell viability incubated for 16 hrs followed by irradiated with 54 J/cm^2 of light dose and further incubated for 24 hrs by CCK-8 assay. The class given is toxicity, cell-based. The following applies: A-375, light or radiation study.
Data set [6] relates to B16-F10. Put plainly: Antitumor immunity against mouse B16-F10 cells assessed as release of HMGB1 at 50 nM incubated for 16 hrs followed by irradiated with 54 J/cm^2 light dose and further incubated for 6 hrs by Alexa Fluor 488/Hoechst 33342 staining based confocal laser scanning microscopy. The class given is functional, cell-based.
For data set [7], the system named is B16-F10. Put plainly: Antitumor immunity against mouse B16-F10 cells assessed as release of HMGB1 at 10 nM incubated for 16 hrs followed by irradiated with 54 J/cm^2 light dose and further incubated for 6 hrs by Alexa Fluor 488/Hoechst 33342 staining based confocal laser scanning microscopy. The format is functional, cell-based.
The test system of data set [8] is A-375. Put plainly: Induction of ROS generation in human A-375 cells assessed as cells with high intracellular ROS levels at 100 nM incubated for 16 hrs followed by irradiated with 54 J/cm2 light dose by H2DCFDA fluorescent probe based flow cytometry method (reference value: 2.09 %). The format is functional.
The subject of data set [9] is B16-F10. The data set can be described thus: Photodynamic therapy in mouse B16-F10 cells implanted in C57BL/6 mouse model assessed as increase in infiltration of CD8+ T cells by APC/FITC/PE staining based flow cytometric analysis (reference value: 3.68 %). The format is functional.
Data set [10] has as its system B16-F10. Put plainly: Antitumor activity against mouse B16-F10 cells implanted in C57BL/6 mouse assessed as inhibition of tumor growth at 2 mg/kg, iv irradiated with 60 J/cm^2 laser light by IVIS imaging analysis measured upto 48 hrs. The class given is functional, organism-based. As to conditions: time hrs <=48.
The subject of data set [11] is B16-F10. Put plainly: Induction of apoptosis in mouse B16-F10 cells assessed as necrotic cells at 250 nM incubated for 16 hrs followed by irradiated with 54 J/cm^2 light dose by Annexin V-FITC/PI based flow cytometric analysis (reference value: 3.75 %). The format is functional.
Data set [12] is described as follows: Biodistribution in kidneys of C57BL/6 mouse harboring mouse B16-F10 cells at 2 mg/kg, iv measured after 12 hrs by flourescence imaging assay. As to conditions: in vivo. The format is ADME, organism-based, Kidney.
Data set [13] deals with B16-F10. Put plainly: Induction of apoptosis in mouse B16-F10 cells assessed as late apoptotic cells at 250 nM incubated for 16 hrs followed by irradiated with 54 J/cm^2 light dose by Annexin V-FITC/PI based flow cytometric analysis (reference value: 2.32 %). The format is functional.
The test system of data set [14] is B16-F10. The data set can be described thus: Induction of ROS generation in mouse B16-F10 cells assessed as cells with high intracellular ROS levels at 20 nM incubated for 16 hrs followed by irradiated with 54 J/cm^2 of light dose by H2DCFDA fluorescent probe based flow cytometry method (reference value: 1.96 %). The class given is functional.
A short description of data set [15]: Toxicity in C57BL/6 mouse harboring mouse B16-F10 cells assessed as change in body weight at 2 mg/kg, iv irradiated with 60 J/cm^2 laser light measured upto 14 days. The format is organism-based. The following applies: in vivo, 336 h, time <=14 day.
The subject of data set [16] is B16-F10. The data set can be described thus: Induction of apoptosis in mouse B16-F10 cells assessed as viable cells at 50 nM incubated for 16 hrs followed by irradiated with 54 J/cm^2 of light dose by Annexin V-FITC/PI based flow cytometric analysis (reference value: 87.45 %). The class given is functional. As to conditions: B16-F10, light or radiation study, read-out: Activity.

Data set [17] has as its system B16-F10. Put plainly: Antitumor immunity against mouse B16-F10 cells assessed as surface translocation of CRT at 50 nM incubated for 16 hrs followed by irradiated with 54 J/cm^2 light dose and further incubated for 6 hrs by Alexa Fluor 488/Hoechst 33342 staining based confocal laser scanning microscopy. The format is functional, cell-based.
Data set [18] is described as follows: Phototoxicity against human HeLa cells assessed as reduction in cell viability incubated for 16 hrs followed by irradiated with 54 J/cm^2 of light dose and further incubated for 24 hrs by CCK-8 assay. The following applies: light or radiation study. The class given is toxicity, cell-based.
Data set [19] deals with A-375. Put plainly: Induction of apoptosis in human A-375 cells assessed as total apoptotic cells at 250 nM incubated for 16 hrs followed by irradiated with 54 J/cm^2 light dose by Annexin V-FITC/PI based flow cytometric analysis (reference value: 4.79 %). The class given is functional.
The nature of data set [20]: Drug localisation in endoplasmic reticulum of human A-375 cells at 5 uM incubated for 16 hrs by ER Tracker Green based confocal laser scanning microscopy analysis. The class given is ADME, subcellular. The following applies: a-375, 16 h.
Data set [21] relates to B16-F10. Put plainly: Antitumor immunity against mouse B16-F10 cells assessed as surface translocation of CRT at 250 nM incubated for 16 hrs followed by irradiated with 54 J/cm^2 light dose and further incubated for 6 hrs by Alexa Fluor 488/Hoechst 33342 staining based confocal laser scanning microscopy. The format is functional, cell-based.
Data set [22] in a line: Biodistribution in heart of C57BL/6 mouse harboring mouse B16-F10 cells at 2 mg/kg, iv measured after 12 hrs by flourescence imaging assay. The format is ADME, organism-based. The following applies: in vivo.
Data set [23] has as its system A-375. Put plainly: Dark toxicity against human A-375 cells assessed as reduction in cell viability incubated for 16 hrs by CCK-8 assay. The class given is functional, cell-based. The following applies: A-375, 16 h.
The subject of data set [24] is B16-F10. The data set can be described thus: Induction of apoptosis in mouse B16-F10 cells assessed as late apoptotic cells at 10 nM incubated for 16 hrs followed by irradiated with 54 J/cm^2 light dose by Annexin V-FITC/PI based flow cytometric analysis (reference value: 2.32 %). The class given is functional.

pIC50: −log10 of the molar value. Calls of active or inactive are those of the source. No cut-off for these calls is given here.

`COc1ccc(C2=[N+]3C(=Nc4c(-c5ccccc5)c5c(n4[B-]3(F)F)-c3ccc(OCC(=O)N[C@@H](CC(=O)O)C(=O)O)cc3CC5)C(c3ccccc3)=C2I)cc1`: in data set [1], the Drug excretion entry is listed as “Active”. For the same molecule, the Activity in data set [2] was found to be 13.7%; in [4] it was 3.51%; in [8], 53.15%; in data set [9] it was 7.98%; in data set [11], 0.29%; in [13] it was 20.54%. Besides, the Activity in data set [14] is 6.77%; in [15], “Non-Toxic”; in data set [19], 93.81%; in data set [24], 7.3%. The pIC50 (commonly the negative decadic logarithm of the IC50, by convention in mol/L) in data set [3] is less than 3.60; in [5], 7.09; in [18] it was 7.68; in [23] it was less than 3.60. In addition, the outcome in data set [6], in data set [10] and in data set [17] was Active. The result in data set [7] and in data set [21] was inactive. Moreover, the Drug uptake result in data set [12], in [20] and in data set [22] was “Active” each time. Also, the viability at 0.05 µM in [16] came to 41.9%.
